Measured values reported in US20240002438A1, “MELANOCORTIN LIGANDS AND METHODS OF USE THEREOF” (REGENTS OF THE UNIVERSITY OF MINNESOTA, priority 2021, published 2024).
Like-named read-outs stand apart in the source and are kept apart here. Each block holds one compound with its values, some of them ahead of it. Where a SMILES comes first, the peptide text is derived from it. Primed or numbered codes have the meaning given here. [ ]: non-standard residue; d: D form. dBip = N[C@H](Cc1ccc(-c2ccccc2)cc1)C(=O)O; Oic = O=C(O)[C@@H]1C[C@@H]2CCCC[C@@H]2N1; dPhe(4-I) = N[C@H](Cc1ccc(I)cc1)C(=O)O; 2Nal = N[C@@H](Cc1ccc2ccccc2c1)C(=O)O; d2Nal = N[C@H](Cc1ccc2ccccc2c1)C(=O)O; Nle = CCCC[C@H](N)C(=O)O; Pip′ = not defined here

Key:
[1] = Solubility in solvents compatible with RP-HPLC
mMC1R [2] = target: T1, mMC1R (Mus musculus, UniProt Q01727); conditions: for mMC1R agonist activity: up to 100 μM
Method: (§1) Following stimulation, streptavidin donor beads (0.5 μg) and biotinylated-cAMP (0.62 μmol) were added to the wells in a green light environment with 10 μL of lysis buffer (5 mM HEPES, 0.3% Tween-20, 0.1% BSA, pH=7.4) and the plates were incubated in the dark at room temperature for an additional 2 h. Plates were read on a Enspire (PerkinElmer) Alpha-plate reader using a pre-normalized assay protocol (set by the manufacturer).

mMC4R [3] = target: T2, mMC4R (Mus musculus, UniProt P56450); design: expressed in transfected cells; host or cells: HEK293; conditions: Doering 2017; cited from earlier work
mMC3R [4] = target: T3, mMC3R (Mus musculus, UniProt P33033); design: expressed in transfected cells; host or cells: HEK293; conditions: Doering 2017; cited from earlier work
mMC3R [5] = target: T3, mMC3R; design: expressed in transfected cells; host or cells: HEK293; conditions: Doering 2017; cited from earlier work; remark: listed apart in the source
mMC4R [6] = target: T2, mMC4R; design: expressed in transfected cells; host or cells: HEK293; conditions: cited from earlier work
mMC5R [7] = target: T4, mMC5R (Mus musculus, UniProt P41149); design: expressed in transfected cells; host or cells: HEK293; conditions: Doering 2017; cited from earlier work
mMC4R [8] = target: T2, mMC4R; experiment: cAMP AlphaScreen antagonist assay at mMC4R, NDP-MSH as agonist, HEK293 cells; conditions: for mMC4R antagonist pA2: NDP-MSH as agonist, HEK293 cells stably expressing mMC4R
Method: as §1

mMC3R [9] = target: T3, mMC3R; experiment: cAMP AlphaScreen antagonist assay at mMC3R, NDP-MSH as agonist, HEK293 cells; conditions: for mMC3R antagonist pA2: NDP-MSH as agonist, HEK293 cells stably expressing mMC3R
mMC1R [10] = target: T1, mMC1R; experiment: cell-based
Method: as §1

mMC3R [11] = target: T3, mMC3R; experiment: cAMP AlphaScreen agonist assay at mMC3R, HEK293 cells; conditions: up to 100 μM
Method: as §1

mMC4R [12] = target: T2, mMC4R; experiment: cAMP AlphaScreen agonist assay at mMC4R, HEK293 cells; conditions: for mMC4R agonist activity: up to 100 μM
Method: as §1

mMC5R [13] = target: T4, mMC5R; experiment: cAMP AlphaScreen agonist assay at mMC5R, HEK293 cells; conditions: for mMC5R agonist activity: up to 100 μM
Method: as §1

MC4R [14] = target: T5, MC4R (Homo sapiens, UniProt P32245); conditions: Nozawa 2007; cited from earlier work
Target sequence in this assay (P32245 whole entry): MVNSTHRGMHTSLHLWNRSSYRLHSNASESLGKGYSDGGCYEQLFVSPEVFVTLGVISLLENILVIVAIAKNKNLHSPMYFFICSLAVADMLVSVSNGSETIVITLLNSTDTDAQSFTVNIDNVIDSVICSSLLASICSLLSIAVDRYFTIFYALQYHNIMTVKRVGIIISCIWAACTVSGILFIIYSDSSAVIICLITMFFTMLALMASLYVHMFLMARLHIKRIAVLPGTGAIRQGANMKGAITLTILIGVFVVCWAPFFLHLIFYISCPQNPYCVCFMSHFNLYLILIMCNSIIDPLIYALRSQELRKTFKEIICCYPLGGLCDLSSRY

human (h)MC4R = human (h)MC4R (Homo sapiens, UniProt P32245); conditions: Chaki 2003; read-out: binding affinity at hMC4R; cited from earlier work
MC3R [15] = target: T6, MC3R (Homo sapiens, UniProt P41968); conditions: Chaki 2003; read-out: binding affinity at hMC3R; cited from earlier work
Target sequence in this assay (P41968 whole entry): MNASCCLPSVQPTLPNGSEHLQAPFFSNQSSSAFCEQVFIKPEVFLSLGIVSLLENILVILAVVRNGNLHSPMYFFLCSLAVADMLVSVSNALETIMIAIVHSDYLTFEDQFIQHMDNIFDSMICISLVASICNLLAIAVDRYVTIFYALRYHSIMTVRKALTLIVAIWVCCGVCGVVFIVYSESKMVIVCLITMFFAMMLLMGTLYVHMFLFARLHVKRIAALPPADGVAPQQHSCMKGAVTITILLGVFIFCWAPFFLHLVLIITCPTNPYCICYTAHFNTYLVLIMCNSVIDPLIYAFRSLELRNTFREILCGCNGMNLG

MC1R [16] = target: T7, MC1R (Homo sapiens, UniProt Q01726); conditions: unable to displace at up to this concentration; Chaki 2003; read-out: displacement of radiolabeled NDP-MSH at hMC1R; cited from earlier work
Target sequence in this assay (Q01726 whole entry): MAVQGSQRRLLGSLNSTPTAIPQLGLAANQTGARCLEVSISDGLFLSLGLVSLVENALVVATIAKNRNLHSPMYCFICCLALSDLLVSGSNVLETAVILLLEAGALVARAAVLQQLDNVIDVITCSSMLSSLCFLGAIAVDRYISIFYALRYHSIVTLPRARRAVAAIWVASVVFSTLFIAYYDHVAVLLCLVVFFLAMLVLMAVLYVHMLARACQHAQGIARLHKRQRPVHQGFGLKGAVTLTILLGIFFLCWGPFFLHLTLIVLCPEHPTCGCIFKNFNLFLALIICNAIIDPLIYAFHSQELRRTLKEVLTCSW

MC5R [17] = target: T8, MC5R (Homo sapiens, UniProt P33032); conditions: Bednarek, cited from earlier work
MC5R [18] = target: T8, MC5R; conditions: Bednarek, cited from earlier work; remark: listed apart in the source
MC1R [19] = target: T7, MC1R; conditions: at 2 μM; cited from earlier work
Target sequence in this assay (Q01726 whole entry, species assumed): as the sequence (Q01726 whole entry) above

MC3R [20] = target: T6, MC3R; conditions: at 2 μM; cited from earlier work
Target sequence in this assay (P41968 whole entry, species assumed): as the sequence (P41968 whole entry) above

MC4R [21] = target: T5, MC4R; conditions: at 2 μM; cited from earlier work
Target sequence in this assay (P32245 whole entry, species assumed): as the sequence (P32245 whole entry) above

MC1R [22] = target: T7, MC1R; conditions: unable to displace at up to this concentration; read-out: displacement of NDP-MSH at the MC1R; cited from earlier work
Target sequence in this assay (Q01726 whole entry, species assumed): as the sequence (Q01726 whole entry) above

MC3R [23] = target: T6, MC3R; conditions: unable to displace at up to this concentration; read-out: displacement of NDP-MSH at the MC3R; cited from earlier work
Target sequence in this assay (P41968 whole entry, species assumed): as the sequence (P41968 whole entry) above

MC4R [24] = target: T5, MC4R; conditions: unable to displace at up to this concentration; read-out: displacement of NDP-MSH at the MC4R; cited from earlier work
Target sequence in this assay (P32245 whole entry, species assumed): as the sequence (P32245 whole entry) above

MC3R [25] = target: T6, MC3R; conditions: Grieco 2002; cited from earlier work
Target sequence in this assay (P41968 whole entry): as the sequence (P41968 whole entry) above

MC4R [26] = target: T5, MC4R; conditions: Grieco 2002; cited from earlier work
Target sequence in this assay (P32245 whole entry): as the sequence (P32245 whole entry) above

T2 sequence (P56450 whole entry): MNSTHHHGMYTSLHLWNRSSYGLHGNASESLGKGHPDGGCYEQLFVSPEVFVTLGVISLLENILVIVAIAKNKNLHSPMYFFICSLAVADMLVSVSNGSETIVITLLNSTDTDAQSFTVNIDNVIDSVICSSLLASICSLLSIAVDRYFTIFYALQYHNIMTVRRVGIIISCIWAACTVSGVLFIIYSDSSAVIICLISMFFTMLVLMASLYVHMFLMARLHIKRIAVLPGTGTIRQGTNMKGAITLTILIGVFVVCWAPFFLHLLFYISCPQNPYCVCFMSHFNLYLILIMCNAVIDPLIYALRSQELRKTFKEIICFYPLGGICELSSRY
T8 sequence (P33032 whole entry, species assumed): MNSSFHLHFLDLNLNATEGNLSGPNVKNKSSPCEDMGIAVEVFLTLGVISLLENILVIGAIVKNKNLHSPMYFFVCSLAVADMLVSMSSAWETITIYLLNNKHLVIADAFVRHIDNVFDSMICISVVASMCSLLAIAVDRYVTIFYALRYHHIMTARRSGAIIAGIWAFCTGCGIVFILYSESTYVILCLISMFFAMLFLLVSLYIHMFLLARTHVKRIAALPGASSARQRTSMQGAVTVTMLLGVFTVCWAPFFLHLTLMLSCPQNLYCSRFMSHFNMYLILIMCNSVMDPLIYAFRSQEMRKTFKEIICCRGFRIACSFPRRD
T1 sequence (Q01727 whole entry): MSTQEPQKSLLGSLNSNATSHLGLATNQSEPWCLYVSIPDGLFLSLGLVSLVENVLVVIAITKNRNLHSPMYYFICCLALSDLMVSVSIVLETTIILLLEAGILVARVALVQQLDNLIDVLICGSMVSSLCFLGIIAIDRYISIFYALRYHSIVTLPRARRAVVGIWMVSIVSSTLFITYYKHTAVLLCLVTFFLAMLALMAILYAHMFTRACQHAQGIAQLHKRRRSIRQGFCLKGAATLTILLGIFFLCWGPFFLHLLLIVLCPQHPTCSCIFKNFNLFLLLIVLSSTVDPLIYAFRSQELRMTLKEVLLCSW
T4 sequence (P41149 whole entry): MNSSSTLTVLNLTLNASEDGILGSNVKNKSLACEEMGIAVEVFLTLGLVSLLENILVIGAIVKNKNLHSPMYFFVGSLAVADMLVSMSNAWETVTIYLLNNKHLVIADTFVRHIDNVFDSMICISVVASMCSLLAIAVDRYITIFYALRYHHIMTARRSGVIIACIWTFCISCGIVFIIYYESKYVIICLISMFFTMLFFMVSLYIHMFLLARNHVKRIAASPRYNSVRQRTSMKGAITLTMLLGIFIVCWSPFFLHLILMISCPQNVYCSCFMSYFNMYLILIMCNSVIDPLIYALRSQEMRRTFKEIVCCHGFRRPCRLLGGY
T3 sequence (P33033 whole entry): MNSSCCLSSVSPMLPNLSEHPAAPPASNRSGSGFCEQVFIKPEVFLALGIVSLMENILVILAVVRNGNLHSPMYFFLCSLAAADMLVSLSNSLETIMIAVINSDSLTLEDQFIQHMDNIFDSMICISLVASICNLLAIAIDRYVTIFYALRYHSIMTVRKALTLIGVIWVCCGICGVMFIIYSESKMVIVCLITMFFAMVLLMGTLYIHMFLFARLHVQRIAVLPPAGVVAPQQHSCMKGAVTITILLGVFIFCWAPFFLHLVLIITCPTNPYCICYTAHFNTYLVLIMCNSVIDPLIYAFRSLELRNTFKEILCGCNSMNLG
Chain of human (h)MC4R (P32245 whole entry): as the sequence (P32245 whole entry) above

Compound: CC(=O)N[C@H](Cc1ccc2ccccc2c1)C(=O)N[C@H](Cc1ccc2ccccc2c1)C(=O)N[C@H](Cc1ccc2ccccc2c1)C(=O)N[C@H](Cc1ccc2ccccc2c1)C(N)=O [Ac-DNal(2′)-DNal(2′)-DNal(2′)-DNal(2′)-NH2] (Ac-[d2Nal][d2Nal][d2Nal][d2Nal]-NH2)
solubility in solvents compatible with RP-HPLC [1]: insoluble

Compound: CC(=O)N[C@H](Cc1ccc2ccccc2c1)C(=O)N[C@@H](CCCNC(=N)N)C(=O)N[C@H](Cc1ccc(I)cc1)C(=O)N[C@H](Cc1ccc2ccccc2c1)C(N)=O [compound 20] (Ac-[d2Nal]R[dPhe(4-I)][d2Nal]-NH2)
EC50 (mMC1R [2]; read-out: mMC1R agonist EC50): 5000 nM | mMC1R agonist activity (mMC1R [2]): full agonist activity | mMC4R antagonist pA2, previously reported (mMC4R [3]): 5.9 | mMC3R antagonist pA2, previously reported (mMC3R [4]): 5.6 | mMC3R partial agonist efficacy, % of the maximal NDP-MSH signal, previously reported (mMC3R [5]): 40% | mMC4R partial agonist efficacy, % of the maximal NDP-MSH signal, previously reported (mMC4R [6]; Doering 2017): 37% | mMC5R partial agonist efficacy, % of the maximal NDP-MSH signal, previously reported (mMC5R [7]): 43% | mMC4R antagonist pA2 (mMC4R [8]): 6.5 | mMC3R antagonist pA2 (mMC3R [9]): 6.1

Compound: CC(=O)N[C@H](Cc1ccc2ccccc2c1)C(=O)N[C@@H](CCCNC(=N)N)C(=O)N[C@@H](Cc1ccc2ccccc2c1)C(=O)N[C@H](CCCCN)C(N)=O [compound 22, Ac-DNal(2′)-Arg-Nal(2′)-DLys-NH2] (Ac-[d2Nal]R[2Nal][dK]-NH2)
EC50 (mMC1R [10]): 400 to 7900 nM | mMC4R antagonist pA2 (mMC4R [8]): 7.8

mMC1R agonist activity (mMC1R [2]): partially stimulate | mMC3R agonist activity (mMC3R [11]): inactive | mMC4R agonist activity (mMC4R [12]): inactive | EC50 (mMC5R [13]): 30 to 800 nM | EC50 (mMC5R [13]; read-out: mMC5R agonist EC50): 130 nM | mMC5R agonist activity (mMC5R [13]): full mMC5R agonists | mMC3R antagonist activity (mMC3R [9]; at the concentrations assayed): did not act as antagonists
Compound: CC(=O)N[C@H](Cc1ccc(I)cc1)C(=O)N[C@H](Cc1ccc2ccccc2c1)C(=O)N[C@H](Cc1ccc(I)cc1)C(=O)N[C@@H](CCCNC(=N)N)C(N)=O [compound 33, Ac-DPhe(pI)-DNal(2′)-DPhe(pI)-Arg-NH2] (Ac-[dPhe(4-I)][d2Nal][dPhe(4-I)]R-NH2)

Compound: Ac-DNal(2′)-Arg-DNal(2′)
IC50 (MC4R [14]): 36.5 nM

Compound: Ac-DNal(2′)-Arg-Nal(2′) [MCL0020]
IC50 (human (h)MC4R): 11.6 nM | IC50 (MC3R [15]): 1120 nM | IC50 (MC1R [16]): > 10000 nM | IC50 (MC4R [14]): 15.4 nM

Compound: Ac-His-DPhe-Arg-Trp-NH2 [reference compound]
agonist potency at the mMC4R (mMC4R [6]; Haskell-Luevano 2001): nanomolar

Compound: Ac-Nle-c[Asp-Oic-DBip-Pip-Trp-Lys]-NH2
EC50 (MC5R [17]; J. Med. Chem. 2007, read-out: concentration activating the MC5R): 0.99 nM | IC50 (MC5R [18]; J. Med. Chem. 2007, read-out: concentration displacing radiolabeled NDP-MSH at the MC5R): 0.95 nM | activation of the MC1R (MC1R [19]): up to 40% | activation of the MC3R (MC3R [20]): up to 40% | activation of the MC4R (MC4R [21]): up to 40% | IC50 (MC1R [22]): > 5000 nM | IC50 (MC3R [23]): > 5000 nM | IC50 (MC4R [24]): > 5000 nM

Compound: Ac-Nle-c[Asp-Pro-DNal(2′)-Arg-Trp-Lys]-NH2 [PG901]
hMC3R antagonist pA2 (MC3R [25]): 9.0 | hMC4R antagonist pA2 (MC4R [26]): 9.3

Compound: Ac-Oic-DBip-Pip-Trp-NH2
EC50 (MC5R [17]; Peptides 2007, read-out: agonist potency at the MC5R): 1200 nM

mMC1R agonist activity (mMC1R [2]): partially stimulate | mMC3R agonist activity (mMC3R [11]): inactive | mMC4R agonist activity (mMC4R [12]): inactive | mMC5R agonist activity (mMC5R [13]): did not possess agonist activity
Compound: Ac-Phe(pI)-Nal(2′)-Phe(pI)-Arg-NH2 [compound 49]

Compound: Ac-Ser-Tyr-Ser-Nle-Glu-Oic-DBip-Pip-Trp-Gly-Lys-Pro-Val-NH2 (Ac-SYS[Nle]E[Oic][dBip][Pip′]WGKPV-NH2; reading uncertain; also: printed as Ac-Ser-Tyr-Ser-Nle-Glu-Oic-DBip-Pip-Trp-Gly-Lys-Pro-Val-NH2)
MC5R agonist potency (MC5R [17]; Peptides 2007): sub-nanomolar | selectivity for the MC5R by radiolabeled 125I-NDP-MSH displacement (MC5R [18]; Peptides 2007): greater than 3200 fold

mMC4R partial activation, % of the maximal NDP-MSH signal (mMC4R [12]; 100 μM): 25% | MC4R antagonist potency compared to endogenous AGRP(86-132) (mMC4R [8]): about equipotent | mMC4R antagonist pA2 (mMC4R [8]): 9.0 | mMC3R antagonist pA2 (mMC3R [9]): 7.8
Compound: Ac-[dPhe(4-I)]R[2Nal]R-NH2 [compound 48]
